Measurements taken from patent US9717769B2, “Method for protecting kidney function” (FUGENBIOPHARMA CO., LTD., priority 2015, dated 2017).

Test system: MDCK cell line
Assay: MTT analysis of kidney-protection effect against cisplatin-induced renal toxicity
Type: cell-based, canine
Conditions: treated with cisplatin only (5 μM), MTT 24 hours after cisplatin; relative to negative control (neither cisplatin nor EPS) set at 100%
Description: MTT analysis was conducted to confirm the kidney-protection effect of the EPS prepared in Preparation Example 4 against renal toxicity caused by an anti-cancer agent.
First, MDCK cell line (Korean Cell Line Bank, Korea) was cultured in DMEM medium supplemented with 10% fetal bovine serum, 100 μg/mL streptomycin and 100 U/mL penicillin at 37° C. and 5% CO2. 100 μL each of the cultured cells was dispensed to 96-well plate at 2×10^4 cells/mL, and cultured for 24 hours. The EPS was added thereto to a concentration of 25, 50 or 250 μg/mL, and 2 hours thereafter, 5 μM of cisplatin was added thereto.
24 hours after cisplatin was added, 10 μL of MTT (1 mg/mL) dissolved in PBS was added to each well, subjected to reaction for 4 hours. After 4 hours, the formation of formazan was confirmed, and the supernatant was completely removed so that formazan may not be dispersed. Then, the resultant was added to dissolve, in 100 μL of DMSO and dissolved, followed by the measurement of the absorbance at 570 nm using ELISA reader.
The results are shown in FIG. 1 as relative values when the value of the negative control group treated with neither cisplatin nor EPS was set at 100%.

## N.N.[Cl][Pt][Cl] [cisplatin, cis-diammine-dichloroplatinum [II]]
  survival rate of MDCK cell line: about 60%
